Experiments:
PMM2 = PMM2 enzyme activity in PMM2-CDG patient-derived fibroblasts; format: cell-based, human; conditions: 50 nM, 24 hours; four PMM2-CDG patient-derived fibroblast lines; vs DMSO-treated mutant cell line
Procedure: Cells were seeded in a 96-well plate, homogenization buffer (20 mM HEPES, 25 mM KCl, 1 mM DTT, 10 μg/ml leupeptin, 10 μg/ml antipain) was added and plates were freeze-thawed at —80° C. twice to lyse cells. Reaction buffer (50 mM HEPES, 5 mM MgCl2, 0.5 mM NADP+, 10 μg/ml yeast glucose-6-phosphate dehydrogenase, 10 μM glucose-1,6-bisphosphate, 10 μg/ml phosphoglucoisomerase, 5.25 μg/ml phosphomannoseisomerase) containing 200 μM mannose-1-phosphate as substrate was then added to the wells of each plate. Plates were incubated at 37° C. for 270 min and absorbance was read at 340 nm at 30, 60, 90, 120, 150, 180, 210, 240 and 270 min by removing the plate from incubation at the respective time points. All incubations were carried out with or without substrate (mannose-1-phosphate) and the difference between the two values was calculated as the enzymatic activity. Enzyme activity was normalized to total lysate protein levels. Enzyme activities of fibroblasts in the absence of an AR inhibitor were determined. […] Following this, enzyme activity was assessed as described above. […] For ease of analysis, the enzyme activity (as represented by NADPH concentration) of each treatment condition was compared with the activity of a baseline, untreated mutant cell line at the last time point.

[1] = CNS penetration (statement)

O=C(O)Cc1nn(Cc2nc3cc(C(F)(F)F)ccc3s2)c(=O)c2cscc12 [Compound B]
PMM2 enzyme activity in patient-derived fibroblast cell lines (PMM2): increased PMM2 enzyme activity in each of the four patient-derived cell lines tested
CNS penetration [1]: CNS penetrant

From patent publication US20220226323A1, “ALDOSE REDUCTASE INHIBITORS FOR TREATMENT OF PHOSPHOMANNOMUTASE 2 DEFICIENCY” (Applied Therapeutics, Inc., priority 2019, published 2022)
